Experimental data from ChEMBL document CHEMBL6096710, “Re-evaluation of Cyclic Peptide Binding to Neurotensin Receptor 1 by Shifting the Peptide Register during Synthesis” (ACS Med Chem Lett, 2025).
Square brackets hold non-standard residues; d marks the D form. Peptide text beside a SMILES is read from it. NMeR = CN[C@@H](CCCNC(=N)N)C(=O)O; Tle = CC(C)(C)[C@H](N)C(=O)O

Experiments:
[1] = Displacement of FAM-NT8-13 from rat NTSR1 stably expressed in HEK293F cells incubated for 1 hr under dark condition by mCherry fluorophore based competition binding assay; format: cell-based
[2] = target: Neurotensin receptor type 1 (Homo sapiens, UniProt P30989); assay: Inhibition of NTSR1 (unknown origin)
Neurotensin receptor type 1, sequence (P30989 whole entry): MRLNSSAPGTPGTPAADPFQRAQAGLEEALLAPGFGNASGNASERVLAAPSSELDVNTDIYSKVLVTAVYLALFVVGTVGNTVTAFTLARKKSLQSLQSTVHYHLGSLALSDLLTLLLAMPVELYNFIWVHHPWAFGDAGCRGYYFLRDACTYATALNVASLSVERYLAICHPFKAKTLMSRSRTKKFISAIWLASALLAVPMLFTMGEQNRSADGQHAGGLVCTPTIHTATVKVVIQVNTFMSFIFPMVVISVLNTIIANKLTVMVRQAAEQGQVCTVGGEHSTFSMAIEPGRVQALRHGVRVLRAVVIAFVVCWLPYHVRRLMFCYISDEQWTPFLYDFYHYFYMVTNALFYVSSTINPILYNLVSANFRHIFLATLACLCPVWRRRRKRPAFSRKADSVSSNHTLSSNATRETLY

Row | SMILES | Ki [1] | pKi [1] | Ki [2]
1 | CC(C)C[C@H](NC(=O)[C@@H](NC(=O)[C@H](Cc1ccc(O)cc1)NC(=O)[C@@H]1CCCN1C(=O)[C@H](CCCCN)NC(=O)[C@@H](N)CCCNC(=N)N)C(C)(C)C)C(=O)O (H-RKPY[Tle]L-OH) | 47.9 nM | 7.32 | 
2 | CN[C@@H](CCCNC(=N)N)C(=O)N[C@@H](CCCCN)C(=O)N1CCC[C@H]1C(=O)N[C@@H](Cc1c[nH]c2ccccc12)C(=O)N[C@H](C(=O)N[C@@H](CC(C)C)C(=O)O)C(C)(C)C (H-[NMeR]KPW[Tle]L-OH) |  |  | 5.37 nM
3 | CC(C)C[C@H](NC(=O)[C@@H](N)C(C)(C)C)C(=O)N[C@@H](CCCNC(=N)N)C(=O)N[C@@H](CCCCN)C(=O)N1CCC[C@H]1C(=O)N[C@@H](Cc1ccc(O)cc1)C(=O)O (H-[Tle]LRKPY-OH) |  | < 4 | 
4 | CC(C)C[C@@H]1NC(=O)[C@H](C(C)(C)C)NC(=O)[C@H](Cc2ccc(O)cc2)NC(=O)[C@@H]2CCCN2C(=O)[C@H](CCCCN)NC(=O)[C@H](CCCNC(=N)N)NC1=O (cyclo(KPY[Tle]LR)) | 1480 nM | < 4 | 1070 nM
